Experimental data reported in PMC3104677 (Molecular microbiology, 2009).

Target: T1, NrpR (Methanococcus maripaludis, UniProt Q6LZL7)
T1 sequence (Q6LZL7 1-536): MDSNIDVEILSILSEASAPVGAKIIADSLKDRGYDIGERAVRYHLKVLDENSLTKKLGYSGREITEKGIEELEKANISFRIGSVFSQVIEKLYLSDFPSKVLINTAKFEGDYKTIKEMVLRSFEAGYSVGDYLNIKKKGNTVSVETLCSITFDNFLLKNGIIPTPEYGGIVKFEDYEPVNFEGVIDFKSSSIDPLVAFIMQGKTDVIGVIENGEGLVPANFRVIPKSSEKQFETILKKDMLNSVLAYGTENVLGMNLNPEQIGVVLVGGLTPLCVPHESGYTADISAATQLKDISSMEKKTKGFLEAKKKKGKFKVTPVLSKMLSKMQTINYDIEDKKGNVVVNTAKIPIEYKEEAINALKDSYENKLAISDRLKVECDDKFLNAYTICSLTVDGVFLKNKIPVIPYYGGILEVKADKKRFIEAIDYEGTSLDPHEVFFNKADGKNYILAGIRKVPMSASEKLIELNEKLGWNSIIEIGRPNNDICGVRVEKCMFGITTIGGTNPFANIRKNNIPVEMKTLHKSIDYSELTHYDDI
Assay: EMSA, inhibition of NrpR binding to […]-labelled glnK1 operator DNA
Conditions: inducer ligand; wild type glnK1 operator region O1+O2; 0.1 and 0.4 mM 2OG

O=C(O)CCC(=O)C(=O)O [2-oxoglutarate]
EMSA, inhibition of NrpR binding to 32P-labelled glnK1 operator DNA: 2OG indicates the nitrogen state of the cell and is the inducer ligand
